Consider 35 molecules from patent publication US20230295119A1, “SUBSTITUTED PYRIDINES FOR THE TREATMENT OF INFLAMMATORY DISEASES” (GOSSAMER BIO SERVICES, INC., priority 2020, published 2023).

Usually IC50 stands for the concentration that gives 50% inhibition.

The target in one test is human JAK1 (Homo sapiens (Human), UniProt P23458). In words: JAK1 TR-FRET kinase assay. The conditions noted are these: TR-FRET, JAK1 2.5 nM. Format: biochemical. On the technique in general: In TR-FRET formats the signal depends on donor and acceptor labels being close together.
For a further test, the target named is TYK2 JH2 domain (Homo sapiens (Human), UniProt P29597). In words: TYK2 JH2 NanoBRET assay. The note with it: Table 20, read-out: TYK2 IC50. Type of test: binding. The gist of the method: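 Tracer displacement measured by BRET ratio (acceptor over donor) in live HEK293T cells transfected with a NanoLuc-tagged TYK2 JH2 construct; cells co-exposed to test compound and 0.5 µM final K10 tracer for 2 h before substrate/extracellular inhibitor addition.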

The next test has as its target human JAK3 (Homo sapiens (Human), UniProt P52333). The test can be described thus: JAK3 TR-FRET kinase assay. Format: biochemical. The note with it: JAK3 0.0125 nM.
A further test addresses human JAK2 (Homo sapiens (Human), UniProt O60674). The test can be described thus: JAK2 TR-FRET kinase assay. Format: biochemical. The conditions noted are these: JAK2 0.025 nM.

Sequence of human JAK2 (O60674 whole entry): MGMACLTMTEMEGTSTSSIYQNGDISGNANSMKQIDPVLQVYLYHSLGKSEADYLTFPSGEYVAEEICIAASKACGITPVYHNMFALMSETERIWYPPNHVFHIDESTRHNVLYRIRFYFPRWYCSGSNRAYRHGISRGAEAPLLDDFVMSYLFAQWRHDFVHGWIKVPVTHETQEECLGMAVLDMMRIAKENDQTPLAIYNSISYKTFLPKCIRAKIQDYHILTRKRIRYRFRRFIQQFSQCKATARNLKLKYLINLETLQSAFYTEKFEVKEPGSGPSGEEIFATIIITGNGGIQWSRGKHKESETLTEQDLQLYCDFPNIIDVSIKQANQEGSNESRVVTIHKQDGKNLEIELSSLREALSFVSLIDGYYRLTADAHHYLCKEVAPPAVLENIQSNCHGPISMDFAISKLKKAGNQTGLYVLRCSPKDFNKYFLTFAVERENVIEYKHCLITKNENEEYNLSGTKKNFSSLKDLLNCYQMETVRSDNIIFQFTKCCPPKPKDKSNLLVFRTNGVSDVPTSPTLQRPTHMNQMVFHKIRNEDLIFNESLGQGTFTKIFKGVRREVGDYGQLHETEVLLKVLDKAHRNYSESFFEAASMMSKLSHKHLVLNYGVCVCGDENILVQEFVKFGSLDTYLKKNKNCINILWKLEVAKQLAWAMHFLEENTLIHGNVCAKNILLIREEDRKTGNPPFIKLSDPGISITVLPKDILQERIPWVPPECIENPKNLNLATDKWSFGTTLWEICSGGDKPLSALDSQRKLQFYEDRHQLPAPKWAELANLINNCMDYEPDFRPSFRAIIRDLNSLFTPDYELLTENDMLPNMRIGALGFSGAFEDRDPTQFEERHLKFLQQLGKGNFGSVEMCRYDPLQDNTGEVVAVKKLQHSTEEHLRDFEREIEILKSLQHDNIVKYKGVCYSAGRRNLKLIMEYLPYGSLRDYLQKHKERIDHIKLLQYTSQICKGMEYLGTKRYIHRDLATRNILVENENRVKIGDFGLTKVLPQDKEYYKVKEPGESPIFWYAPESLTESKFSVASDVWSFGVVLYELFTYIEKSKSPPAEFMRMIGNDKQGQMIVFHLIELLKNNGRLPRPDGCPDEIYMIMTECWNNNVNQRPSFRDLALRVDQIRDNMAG
Sequence of human JAK3 (P52333 whole entry): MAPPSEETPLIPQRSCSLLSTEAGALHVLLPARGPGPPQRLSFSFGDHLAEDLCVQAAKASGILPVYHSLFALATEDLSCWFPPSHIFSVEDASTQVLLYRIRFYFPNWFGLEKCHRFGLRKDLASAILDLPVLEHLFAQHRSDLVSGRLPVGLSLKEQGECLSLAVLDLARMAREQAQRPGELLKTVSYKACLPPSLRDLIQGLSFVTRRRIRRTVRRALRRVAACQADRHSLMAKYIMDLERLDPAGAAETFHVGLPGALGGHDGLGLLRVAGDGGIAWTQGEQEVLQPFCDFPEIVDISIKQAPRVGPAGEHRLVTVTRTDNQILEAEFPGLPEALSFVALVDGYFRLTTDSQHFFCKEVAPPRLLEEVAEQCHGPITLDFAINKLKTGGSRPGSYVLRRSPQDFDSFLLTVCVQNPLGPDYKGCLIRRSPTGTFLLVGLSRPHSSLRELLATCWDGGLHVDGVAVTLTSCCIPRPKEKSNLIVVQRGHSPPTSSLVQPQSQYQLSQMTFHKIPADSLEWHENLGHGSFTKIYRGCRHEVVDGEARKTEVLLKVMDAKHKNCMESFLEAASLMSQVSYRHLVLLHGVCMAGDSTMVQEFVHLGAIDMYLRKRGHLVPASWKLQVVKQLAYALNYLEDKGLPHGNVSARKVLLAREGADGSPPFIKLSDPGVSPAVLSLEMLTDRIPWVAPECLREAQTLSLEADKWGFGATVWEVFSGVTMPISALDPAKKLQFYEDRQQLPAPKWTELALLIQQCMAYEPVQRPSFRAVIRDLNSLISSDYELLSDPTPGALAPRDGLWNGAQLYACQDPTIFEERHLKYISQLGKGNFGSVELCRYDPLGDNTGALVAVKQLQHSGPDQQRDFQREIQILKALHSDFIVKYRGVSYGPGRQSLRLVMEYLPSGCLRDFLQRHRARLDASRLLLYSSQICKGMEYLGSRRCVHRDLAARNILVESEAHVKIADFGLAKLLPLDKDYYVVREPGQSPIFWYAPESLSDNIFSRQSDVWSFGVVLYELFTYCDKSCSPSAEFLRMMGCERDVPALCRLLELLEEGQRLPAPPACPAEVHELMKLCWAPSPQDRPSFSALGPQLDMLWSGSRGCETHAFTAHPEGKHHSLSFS
Sequence of human JAK1 (P23458 whole entry, the tested form may be a part): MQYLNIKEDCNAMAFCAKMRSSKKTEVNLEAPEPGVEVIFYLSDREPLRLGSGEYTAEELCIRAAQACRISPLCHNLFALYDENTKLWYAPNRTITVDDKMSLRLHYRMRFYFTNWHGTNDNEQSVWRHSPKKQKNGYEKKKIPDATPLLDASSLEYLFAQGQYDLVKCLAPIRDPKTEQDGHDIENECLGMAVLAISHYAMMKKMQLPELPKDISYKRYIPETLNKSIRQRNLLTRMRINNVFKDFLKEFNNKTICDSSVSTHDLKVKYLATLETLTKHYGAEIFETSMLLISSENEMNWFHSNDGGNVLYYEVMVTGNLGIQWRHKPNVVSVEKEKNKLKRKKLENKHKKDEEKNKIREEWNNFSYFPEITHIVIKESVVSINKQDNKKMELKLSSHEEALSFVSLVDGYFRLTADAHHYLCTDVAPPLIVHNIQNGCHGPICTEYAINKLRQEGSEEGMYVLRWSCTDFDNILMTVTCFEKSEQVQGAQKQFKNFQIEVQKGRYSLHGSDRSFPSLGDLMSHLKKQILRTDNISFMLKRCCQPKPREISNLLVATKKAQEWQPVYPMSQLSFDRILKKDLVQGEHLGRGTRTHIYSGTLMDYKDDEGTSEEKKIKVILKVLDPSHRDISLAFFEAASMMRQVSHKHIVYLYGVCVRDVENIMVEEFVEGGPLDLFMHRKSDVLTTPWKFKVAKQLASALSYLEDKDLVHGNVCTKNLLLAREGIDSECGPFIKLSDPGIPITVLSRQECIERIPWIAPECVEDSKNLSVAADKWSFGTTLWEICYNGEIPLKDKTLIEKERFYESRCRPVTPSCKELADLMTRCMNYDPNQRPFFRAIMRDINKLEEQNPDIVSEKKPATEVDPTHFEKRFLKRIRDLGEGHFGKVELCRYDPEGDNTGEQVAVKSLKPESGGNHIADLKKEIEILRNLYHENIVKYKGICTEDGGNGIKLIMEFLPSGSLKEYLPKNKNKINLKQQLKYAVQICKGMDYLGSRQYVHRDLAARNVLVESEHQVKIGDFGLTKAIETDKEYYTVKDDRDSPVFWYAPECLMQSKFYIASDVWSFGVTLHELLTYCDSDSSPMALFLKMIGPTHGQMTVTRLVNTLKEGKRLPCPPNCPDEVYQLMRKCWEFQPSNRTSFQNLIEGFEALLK
Sequence of TYK2 JH2 domain (P29597 589-875): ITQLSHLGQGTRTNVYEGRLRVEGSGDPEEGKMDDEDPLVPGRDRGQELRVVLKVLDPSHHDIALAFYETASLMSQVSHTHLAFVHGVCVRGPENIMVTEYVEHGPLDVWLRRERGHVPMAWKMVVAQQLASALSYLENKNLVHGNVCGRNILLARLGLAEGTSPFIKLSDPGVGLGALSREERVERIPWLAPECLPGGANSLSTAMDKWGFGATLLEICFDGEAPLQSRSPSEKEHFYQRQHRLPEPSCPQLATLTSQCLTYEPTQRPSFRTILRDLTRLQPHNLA

Consider `CCC(=O)c1cnc(Nc2ccc(C3(N)CC3)cn2)cc1Nc1cccc(-c2ncn(C)n2)c1OC` [Compound 9O], for which the IC50 against human JAK1 was at least 0.5 µM; at TYK2 JH2 domain, below 0.005 µM; against human JAK3 it was at least 0.5 µM; against human JAK2 it was at least 0.5 µM.

As to `CCC(=O)c1cnc(Nc2ccc([C@H](C)N3C[C@@H](O)[C@H](O)C3)cn2)cc1Nc1cccc(-c2ncn(C)n2)c1OC` [Compound 9PP], the IC50 was at least 0.5 µM against human JAK1, 0.005 to 0.05 µM at TYK2 JH2 domain, 0.05 to 0.5 µM against human JAK3 and at least 0.5 µM on human JAK2.

With `CCC(=O)c1cnc(Nc2ccc(C3(NC)CC3)cn2)cc1Nc1cccc(-c2ncn(C)n2)c1OC` [Compound 9P], the IC50 on human JAK1 was at least 0.5 µM; on TYK2 JH2 domain, below 0.005 µM; against human JAK3, at least 0.5 µM; on human JAK2, at least 0.5 µM.

Regarding `CCC(=O)c1cnc(Nc2cc(C(C)N(C)C)ncn2)cc1Nc1cccc(-c2ncn(C)n2)c1OC` (centres unmarked) [Compound 9QQQQ], the IC50 on human JAK1 was at least 0.5 µM; on TYK2 JH2 domain it was below 0.005 µM; against human JAK3, at least 0.5 µM; against human JAK2 it was at least 0.5 µM.

As to `CCC(=O)c1cnc(Nc2cnc(CN)cn2)cc1Nc1cccc(-c2ncn(C)n2)c1OC` [Compound 9QQQ], the IC50 against human JAK1 is at least 0.5 µM; at TYK2 JH2 domain it was below 0.005 µM; against human JAK3 it was at least 0.5 µM; at human JAK2 it was at least 0.5 µM.

`CCC(=O)c1cnc(Nc2ccc([C@@H](C)N3C[C@@H](O)[C@H](O)C3)cn2)cc1Nc1cccc(-c2ncn(C)n2)c1OC` [Compound 9QQ]: the IC50 was at least 0.5 µM against human JAK1, 0.005 to 0.05 µM on TYK2 JH2 domain, 0.05 to 0.5 µM at human JAK3 and at least 0.5 µM on human JAK2.

As for `CCC(=O)c1cnc(Nc2ccc(C3(N(C)C)CC3)cn2)cc1Nc1cccc(-c2ncn(C)n2)c1OC` [Compound 9Q], the concentration for half-maximal inhibition (IC50) against human JAK1 was at least 0.5 µM; on TYK2 JH2 domain, below 0.005 µM; against human JAK3, at least 0.5 µM; at human JAK2, at least 0.5 µM.

On to `CCC(=O)c1cnc(Nc2ccc(CN(C)C)c(C(F)(F)F)n2)cc1Nc1cccc(-c2ncn(C)n2)c1OC` [Compound 9RRRR], for which the IC50 against human JAK1 was at least 0.5 µM; at TYK2 JH2 domain it was 0.005 to 0.05 µM; against human JAK3 it was at least 0.5 µM; against human JAK2, at least 0.5 µM.

For the molecule `CCC(=O)c1cnc(Nc2cnc(CNC)cn2)cc1Nc1cccc(-c2ncn(C)n2)c1OC` [Compound 9RRR], the IC50 is at least 0.5 µM against human JAK1, below 0.005 µM at TYK2 JH2 domain, at least 0.5 µM against human JAK3 and at least 0.5 µM against human JAK2.

Take `CCC(=O)c1cnc(Nc2ccc(CN3CCCCC3)cn2)cc1Nc1cccc(-c2ncn(C)n2)c1OC` [Compound 9RR]: the half-maximal inhibitory concentration (IC50) at human JAK1 was at least 0.5 µM; at TYK2 JH2 domain, below 0.005 µM; at human JAK3 it was at least 0.5 µM; against human JAK2, at least 0.5 µM.

As to `CCC(=O)c1cnc(Nc2ccc(CN(C)C3CC3)cn2)cc1Nc1cccc(-c2ncn(C)n2)c1OC` [Compound 9R], the IC50 on human JAK1 is at least 0.5 µM; on TYK2 JH2 domain it was 0.005 to 0.05 µM; against human JAK3, at least 0.5 µM; at human JAK2, at least 0.5 µM.

As to `CCC(=O)c1cnc(Nc2cc(C(F)(F)F)c(CN(C)C)cn2)cc1Nc1cccc(-c2ncn(C)n2)c1OC` [Compound 9SSSS], the IC50 against human JAK1 was at least 0.5 µM; at TYK2 JH2 domain it was 0.005 to 0.05 µM; on human JAK3, at least 0.5 µM; against human JAK2, at least 0.5 µM.

In the case of `CCC(=O)c1cnc(Nc2cnc(CN(C)C)cn2)cc1Nc1cccc(-c2ncn(C)n2)c1OC` [Compound 9SSS], the IC50 on human JAK1 was at least 0.5 µM; at TYK2 JH2 domain, below 0.005 µM; against human JAK3, at least 0.5 µM; at human JAK2, at least 0.5 µM.

In the case of `CCC(=O)c1cnc(Nc2ccc(CN3CCOCC3)cn2)cc1Nc1cccc(-c2ncn(C)n2)c1OC` [Compound 9SS], the IC50 was at least 0.5 µM on human JAK1, below 0.005 µM on TYK2 JH2 domain, at least 0.5 µM on human JAK3 and at least 0.5 µM against human JAK2.

For the molecule `CCC(=O)c1cnc(Nc2ccc(C(NC)C(F)(F)F)cn2)cc1Nc1cccc(-c2ncn(C)n2)c1OC` (centres unmarked) [Compound 9S], the IC50 on human JAK1 was at least 0.5 µM; at TYK2 JH2 domain, below 0.005 µM; against human JAK3, at least 0.5 µM; against human JAK2, 0.05 to 0.5 µM.

As for `CCC(=O)c1cnc(Nc2nccc(CN(C)C)c2F)cc1Nc1cccc(-c2ncn(C)n2)c1OC` [Compound 9TTTT], the IC50 was at least 0.5 µM against human JAK1, 0.005 to 0.05 µM on TYK2 JH2 domain, at least 0.5 µM against human JAK3 and at least 0.5 µM against human JAK2.

For the molecule `CCC(=O)c1cnc(Nc2cnc(C(N)C(F)(F)F)cn2)cc1Nc1cccc(-c2ncn(C)n2)c1OC` (centres unmarked) [Compound 9TTT], the 50% inhibitory concentration (IC50) is at least 0.5 µM on human JAK1, 0.005 to 0.05 µM at TYK2 JH2 domain, at least 0.5 µM on human JAK3 and at least 0.5 µM on human JAK2.

Turning to `CCC(=O)c1cnc(Nc2ccc(CN3[C@H](C)COC[C@@H]3C)cn2)cc1Nc1cccc(-c2ncn(C)n2)c1OC` [Compound 9TT], the IC50 on human JAK1 is at least 0.5 µM; on TYK2 JH2 domain, below 0.005 µM; against human JAK3 it was 0.05 to 0.5 µM; against human JAK2 it was 0.05 to 0.5 µM.

With `CCC(=O)c1cnc(Nc2ccc(CN(C)C(C)C)cn2)cc1Nc1cccc(-c2ncn(C)n2)c1OC` [Compound 9T], the IC50 at human JAK1 is at least 0.5 µM; on TYK2 JH2 domain it was below 0.005 µM; against human JAK3, at least 0.5 µM; against human JAK2, at least 0.5 µM.

`CCC(=O)c1cnc(Nc2nc(CN(C)C)ccc2F)cc1Nc1cccc(-c2ncn(C)n2)c1OC` [Compound 9UUUU]: the 50% inhibitory concentration (IC50) against human JAK1 is at least 0.5 µM; on TYK2 JH2 domain it was 0.05 to 0.5 µM; against human JAK3, at least 0.5 µM; against human JAK2, at least 0.5 µM.

Take `CCC(=O)c1cnc(Nc2cnc(C(NC)C(F)(F)F)cn2)cc1Nc1cccc(-c2ncn(C)n2)c1OC` (centres unmarked) [Compound 9UUU]: the IC50 at human JAK1 is at least 0.5 µM; at TYK2 JH2 domain, 0.005 to 0.05 µM; at human JAK3 it was at least 0.5 µM; against human JAK2, at least 0.5 µM.

In the case of `CCC(=O)c1cnc(Nc2ccc(CN3C[C@@H](C)O[C@@H](C)C3)cn2)cc1Nc1cccc(-c2ncn(C)n2)c1OC` [Compound 9UU], the 50% inhibitory concentration (IC50) on human JAK1 was at least 0.5 µM; at TYK2 JH2 domain, below 0.005 µM; against human JAK3, at least 0.5 µM; against human JAK2, at least 0.5 µM.

With `CCC(=O)c1cnc(Nc2ccc(CN(C)CC)cn2)cc1Nc1cccc(-c2ncn(C)n2)c1OC` [Compound 9U], the IC50 at human JAK1 is at least 0.5 µM; on TYK2 JH2 domain it was below 0.005 µM; on human JAK3 it was at least 0.5 µM; at human JAK2 it was at least 0.5 µM.

With `CCC(=O)c1cnc(Nc2cnc(C(N(C)C)C(F)(F)F)cn2)cc1Nc1cccc(-c2ncn(C)n2)c1OC` (centres unmarked) [Compound 9VVV], the IC50 on human JAK1 is at least 0.5 µM; on TYK2 JH2 domain, 0.005 to 0.05 µM; at human JAK3 it was at least 0.5 µM; at human JAK2 it was at least 0.5 µM.

As for `CCC(=O)c1cnc(Nc2ccc(CN3CCS(=O)(=O)CC3)cn2)cc1Nc1cccc(-c2ncn(C)n2)c1OC` [Compound 9VV], the IC50 at human JAK1 is at least 0.5 µM; at TYK2 JH2 domain it was below 0.005 µM; on human JAK3 it was 0.05 to 0.5 µM; against human JAK2, 0.05 to 0.5 µM.

Regarding `CCC(=O)c1cnc(Nc2ccc(C(N(C)C)C(F)(F)F)cn2)cc1Nc1cccc(-c2ncn(C)n2)c1OC` (centres unmarked) [Compound 9V], the IC50 at human JAK1 was at least 0.5 µM; at TYK2 JH2 domain it was below 0.005 µM; against human JAK3, at least 0.5 µM; at human JAK2, at least 0.5 µM.

Regarding `CCC(=O)c1cnc(Nc2cnc(CN(C)CC(F)F)cn2)cc1Nc1cccc(-c2ncn(C)n2)c1OC` [Compound 9WWW], the half-maximal inhibitory concentration (IC50) is at least 0.5 µM against human JAK1, 0.005 to 0.05 µM at TYK2 JH2 domain, at least 0.5 µM at human JAK3 and at least 0.5 µM at human JAK2.

As for `CCC(=O)c1cnc(Nc2ccc(CN3CCS(=N)(=O)CC3)cn2)cc1Nc1cccc(-c2ncn(C)n2)c1OC` [Compound 9WW], the IC50 against human JAK1 is at least 0.5 µM; at TYK2 JH2 domain, 0.005 to 0.05 µM; against human JAK3, 0.05 to 0.5 µM; against human JAK2, 0.05 to 0.5 µM.

On to `[2H]C([2H])([2H])N(Cc1ccc(Nc2cc(Nc3cccc(-c4ncn(C)n4)c3OC)c(C(=O)CC)cn2)nc1)C([2H])([2H])[2H]` [Compound 9W], for which the IC50 against human JAK1 is at least 0.5 µM; at TYK2 JH2 domain, below 0.005 µM; on human JAK3, at least 0.5 µM; against human JAK2, at least 0.5 µM.

For the molecule `CCC(=O)c1cnc(Nc2cnc(CN(C)CC(F)(F)F)cn2)cc1Nc1cccc(-c2ncn(C)n2)c1OC` [Compound 9XXX], the IC50 against human JAK1 is at least 0.5 µM; on TYK2 JH2 domain it was 0.005 to 0.05 µM; on human JAK3, at least 0.5 µM; on human JAK2, at least 0.5 µM.

Turning to `CCC(=O)c1cnc(Nc2ccc(CN3C4COCC3C4)cn2)cc1Nc1cccc(-c2ncn(C)n2)c1OC` [Compound 9XX], the IC50 at human JAK1 was at least 0.5 µM; on TYK2 JH2 domain, below 0.005 µM; against human JAK3, 0.05 to 0.5 µM; at human JAK2 it was 0.05 to 0.5 µM.

Take `CCC(=O)c1cnc(Nc2ccc(CN(C)CC(F)(F)F)cn2)cc1Nc1cccc(-c2ncn(C)n2)c1OC` [Compound 9X]: the IC50 is at least 0.5 µM against human JAK1, 0.005 to 0.05 µM on TYK2 JH2 domain, at least 0.5 µM at human JAK3 and at least 0.5 µM at human JAK2.

Take `CCC(=O)c1cnc(Nc2cnc(C3(N)CC3)cn2)cc1Nc1cccc(-c2ncn(C)n2)c1OC` [Compound 9YYY]: the IC50 at human JAK1 was at least 0.5 µM; on TYK2 JH2 domain, 0.005 to 0.05 µM; on human JAK3, at least 0.5 µM; against human JAK2, at least 0.5 µM.

`CCC(=O)c1cnc(Nc2ccc(CN3CC4(COC4)C3)cn2)cc1Nc1cccc(-c2ncn(C)n2)c1OC` [Compound 9YY]: the IC50 is at least 0.5 µM against human JAK1, below 0.005 µM on TYK2 JH2 domain, 0.05 to 0.5 µM on human JAK3 and at least 0.5 µM on human JAK2.

For the molecule `CCC(=O)c1cnc(Nc2ccc(CN(C)CC(F)F)cn2)cc1Nc1cccc(-c2ncn(C)n2)c1OC` [Compound 9Y], the IC50 was at least 0.5 µM against human JAK1, 0.005 to 0.05 µM on TYK2 JH2 domain, at least 0.5 µM against human JAK3 and at least 0.5 µM on human JAK2.
